This passage reports IC50 results from patent publication US20130245075A1, “MELANOGENESIS INHIBITION-METHODS AND COMPOSITIONS THEREOF” (priority 2012, published 2013).

≈ marks a conversion by molar mass, not a printed value.

The experiment concerns B16 F1 mouse melanoma cells. The experiment in a line: Melanogenesis inhibition: intracellular melanin in α-MSH/cAMP-induced B16F1 cells. In kind it is cell-based. Conditions: B16-F1, 216 h, melanin induced by α-MSH/cAMP, 9 days treatment, melanin extracted by 1N NaOH, absorbance 405 nm, read-out: IC50 (inhibition of melanin formation). The method, then:
The intracellular melanin in B16 F1 mouse melanoma cells treated with varying concentrations of the sample is extracted by 1N NaOH. The brown colored melanin thus extracted is estimated at 405 nm. This brown color intensity of the melanin is quenched in the presence of the inhibitor. B16F1 mouse melanoma cells are cultured for 24 hours in a 6 well microtiter plate at a seeding density of 5000 cells per well. Melanin production is induced by α-MSH/cAMP after which the cells are treated with varying non-cytotoxic concentrations of the sample over a period of 9 days with sample treatment at regular intervals of 3 days. The melanin is extracted by 1N NaOH and the absorbance read at 405 nm in a Microplate reader. The inhibitory effect of the sample is calculated based on the degree of inhibition of melanin formation. The results are expressed as IC50 values using Graph pad prism software. The percentage of inhibition of melanin is calculated as follows % Inhibition=C−T/C×100 Where, C-absorbance due to melanin in untreated cells; T-absorbance due to melanin in sample treated cells

Take `O=c1cc(CO)occ1O` [Kojic acid]: the concentration for half-maximal inhibition (IC50) came out at 100 µg/mL (≈ 704 µM).

For the compound `COc1cc(/C=C/C(=O)N2CCC=CC2=O)cc(OC)c1OC` [piperlongumine], the IC50 was 0.625 µg/mL (≈ 1.97 µM).

The IC50 is the concentration at which inhibition is half-maximal.
